{"source": "patent US6417159B1", "about": "(Queen's University at Kingston, priority 1996, dated 2002)", "key": {"[1]": {"system": "PC12 cells", "test": "Acid phosphatase assay of cell survival, PC12 cells", "assay_type": "cell-based, rat", "conditions": "PC12 (high-TrkA), serum-free conditions", "description": "This is a colorimetric assay which measures the lysosomal enzyme acid phosphatase to determine cell number (Connolly et al., 1986) modified by Ueda et al. (1994) for use with cultured neuronal cells. Medium was removed gently from PC12 or PC12^nnr5 cells cultured in 96 well plates and well were washed once with 200 μl PBS. Then 100 μl of buffer containing 0.1M sodium acetate pH 5.5, 0.1% TRITON™ X-100, and 10 mM p-nitrophenyl phosphate (Sigma 104 phosphatase substrate) was added to each well. Plates were placed in a 37° C., 5% CO2 incubator for 3 hours. The reaction was stopped by the addition of 10 μl/well of 1N sodium hydroxide and the colour development measured at 405 nm using a microplate reader (Titertek). The first column on each plate contained no cells (buffer only) and was used as a blank. The relationship between cell number and enzyme activity was linear over the range 1000 to 15,000 cells.\nTo exclude the possibility that the effects of R3 on neurite growth in the experiments described above were indirect and mediated by an influence on cell survival, PC12 and PC12^nnr5 cells were exposed to serum free conditions in the absence and presences of NGF, and in the absence and presence of R3. […] Nor was there any difference in NGF-mediated survival whether R3 exposure occurred before or at the same time as NGF exposure. […]"}, "[2]": {"system": "ciliary neurons", "test": "CNTF survival effect on ciliary neurons", "assay_type": "cell-based"}, "[3]": {"test": "Precipitation out of aqueous solution", "assay_type": "physicochemical"}, "[4]": {"molecular_target": "T1, p75^NTR (Rattus norvegicus, UniProt P07174)", "T1 construct": "endogenous in cells; host or cells: PC12", "T1 sequence (P07174 30-425)": "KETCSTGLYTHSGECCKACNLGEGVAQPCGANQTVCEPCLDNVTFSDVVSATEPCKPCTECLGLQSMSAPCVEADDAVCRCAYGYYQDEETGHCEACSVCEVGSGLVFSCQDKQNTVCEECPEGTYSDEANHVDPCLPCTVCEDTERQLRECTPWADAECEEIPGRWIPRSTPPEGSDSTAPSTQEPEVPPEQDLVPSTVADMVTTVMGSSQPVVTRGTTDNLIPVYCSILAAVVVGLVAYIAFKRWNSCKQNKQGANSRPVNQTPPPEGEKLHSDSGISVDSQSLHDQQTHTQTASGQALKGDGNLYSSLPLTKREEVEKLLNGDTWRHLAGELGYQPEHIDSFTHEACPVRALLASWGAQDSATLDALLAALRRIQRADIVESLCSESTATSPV", "test": "[125I]NGF affinity cross-linking to p75NTR", "assay_type": "binding", "conditions": "PC12 cells, 50 μM R3", "description": "FIG. 7A illustrates the influence of peptide R3 on affinity cross-linking of TrkA and p75^NTR. Intact PC12 cells were treated with 50 μM R3 for 24 h (preinc.) in medium, harvested with CMF medium, and suspended at a concentration of 10^6·ml^−1 (or 10^7·m^−1 for immunoprecipitation studies) in HKR buffer. Cells were then incubated in the presence or absence of R3 (coinc.) for 15 min at 37° C. and cooled in ice. Cross-linking was performed by incubating cells with 1 nM [^125I]-NGF for 2 h at 4° C., adding EDC ([…]) and NHS (2 mM) or BS^3 (0.4 mM) as indicated, and incubating for 30 min at 25° C. Cells were washed three times in HKR buffer and the pellet dissolved in reducing SDS sample buffer or in lysis buffer (1% NP-40, 10% glycerol, 1 mM PMSF, 10 μg-ml^−1 aprotinin, 1 μg/ml leupeptin, […] o-vanadate in TBS) for immunoprecipitation (lanes 4 and 8). For immunoprecipitation, the cellular debris was removed by centrifugation and the supernatant incubated with 1 μg anti-p75^NTR monoclonal Ab 192 (Cedarlane Laboratories Ltd.) or 1 μg anti-TrkA polyclonal Ab (a gift from Dr. W. Mobley, University of California, San Francisco) for 4 h at 4° C. Immunoprecipates were isolated by incubating with 50 μl of a 50% solution of protein A-SEPHAROSE™ (anti-Trk) or goat anti-mouse agarose (Ab 192) for 2 h at 4° C. Precipitates were washed 3 times in lysis buffer and dissolved in sample buffer. […]"}}}
{"sequence": "LDALLAALRRIQR [R3]", "values": [{"measurement": "Influence on NGF-mediated cell survival, in words", "setting": "[1]", "result": "no influence on NGF-mediated survival"}, {"measurement": "Influence on survival effect of CNTF on ciliary neurons, in words", "setting": "[2]", "result": "no influence"}, {"measurement": "Concentration at which the peptide tended to precipitate out of aqueous solution with time", "setting": "[3]", "result": "≥ 50", "unit": "µM"}, {"measurement": "Affinity cross-linking of [125I]NGF to p75NTR monomers or homodimers, in words", "setting": "[4]", "result": "not affected"}]}
